Experimental data from PubChem BioAssay AID2060487 (Molecular Pharmacology Branch, DTP, NCI, 2025).

System: 997537-175-T-J1-PDC complex spheroid viability
Assay: Anticancer human tumor 997537-175-T-J1-PDC patient-derived colon adenocarcinoma cell line growth inhibition [GQUAD]
Details: for IC50: curve of first compound; for viability, T/C: stronger effect = lower value
Excerpt: DNA G-quadruplex Stabilizer Agents in Combinations in Complex Spheroids
A high-throughput screen of multi-cell type tumor spheroids was designed to identify active combinations of DNA G-quadruplex stabilizer agents and targeted small molecules. Complex spheroids include a stromal component modeled by human endothelial cells (HUVEC) and fibroblasts modeled by human mesenchymal stem cells (MSCs). The concentration ranges selected for each drug and investigational agent were based upon clinically achievable concentrations if the clinical Cmax of the agent was known.
Compounds. The drugs and investigational agents: pidnarulex (CX-5461; NSC782164), APTO-253 (NSC789042), BRACO-19 (NSC847499), peposertib (NSC802822), ceralasertib (NSC780249), elimusertib (NSC800525), camonsertib (NSC841442), AZD-1390 (NSC803789), olaparib (NSC753686), talazoparib (NSC767125), ART-558 (NSC835418), sotorasib (NSC818433), MRTX-1133 (NSC836407), SN-38 (NSC673596), topotecan (NSC609699), etoposide (NSC141540), doxorubicin (NSC123127), gemcitabine (NSC613327), 5-fluorouracil (NSC19893), paclitaxel (NSC125973), vemurafenib (NSC761431), panobinostat (NSC761190), R-306465 (JNJ-16241199; NSC773264), adavosertib (NSC754352), TP-3654 (NSC805149), carboplatin (NSC241240), KSQ-4279 (NSC840948), and staurosporine (NSC755774) were obtained from the National Cancer Institute (NCI) Developmental Therapeutics Program Chemical Repository (34). The FDA-approved anticancer drug set is available from the NCI Developmental Therapeutics Program. […] The stock solutions were prepared in dimethyl sulfoxide (DMSO, Sigma-Aldrich, St. Louis, MO, cat. D2650) at 800-fold the tested concentration and stored at -70 degrees C prior to their use. All drugs and investigational agents were tested over a range starting from a high concentration at or near the clinical Cmax and decreasing in half-log increments. If the clinical Cmax for an agent had not been determined, the highest concentration tested was 10 microM.
2.3 Cell Culture. All cells were maintained in an incubator at 37 degrees C and 5% CO2 with 95% humidity. The PDC lines were cultured according to standard operating procedures established by the NCI PDMR. All PDCs were thawed and cultured in Matrigel-coated flasks prepared with a working solution of 1X Ham's F-12 nutrient mix, without supplementation (Invitrogen, cat. 11765054), 100 U/mL penicillin-streptomycin (Invitrogen, cat. 15140122), and 2.5% Matrigel (Corning Inc., cat. 354248) for the first three passages. The 857933-349-R-J2-PDC line was cultured in 6C/Colon 1B media, which includes advanced DMEM/F-12 (Thermo Fisher Scientific, cat. 12634028), 10 mM HEPES (Thermo Fisher Scientific, cat. 15630080), 1X GlutaMAX supplement (Thermo Fisher Scientific, cat. 35050061), 0.1 mg/mL primocin (InvivoGen, cat. ant-pm-2), 10% defined fetal bovine serum, heat inactivated (HyClone Laboratories Inc., cat. SH30070.03HI), 50% L-WRN conditioned media (ATCC, cat. CRL-3276), 1.25 mM N-Acetyl-L-cysteine (Sigma-Aldrich, cat. A9165), 10 mM nicotinamide (Sigma-Aldrich, cat. N0636), 1X B-27 supplement (Thermo Fisher Scientific, cat. 17504044), 1X N-2 supplement (Thermo Fisher Scientific, cat. 17502048), 10 microM Y-27632 dihydrochloride (Tocris Bioscience, cat. 1254), and 50 ng/mL human EGF recombinant protein (Thermo Fisher Scientific, cat. PHG0311). The 485176-168-R4-J1-PDC line was cultured in Panc media, which includes all 6C/Colon 1B media components plus 100 ng/mL human FGF-10 (Thermo Fisher Scientific, cat. 100-26), 500 nM SB-431542 (Selleckchem, cat. S1067), and gastrin (Tocris, cat. 3006).
[…]

[1] = second compound 0.0316 µM, first compound 0.0316 µM
[2] = second compound 0.0316 µM, first compound 0.1 µM
[3] = second compound 0.0316 µM, first compound 0.316 µM
[4] = second compound 0.0316 µM, first compound 1 µM
[5] = second compound 0.0316 µM, first compound 3.16 µM
[6] = second compound 0.0316 µM, first compound 10 µM
[7] = second compound 0.1 µM, first compound 0.0316 µM
[8] = second compound 0.1 µM, first compound 0.1 µM
[9] = second compound 0.1 µM, first compound 0.316 µM
[10] = second compound 0.1 µM, first compound 1 µM
[11] = second compound 0.1 µM, first compound 3.16 µM
[12] = second compound 0.1 µM, first compound 10 µM
[13] = second compound 0.316 µM, first compound 0.0316 µM
[14] = second compound 0.316 µM, first compound 0.1 µM
[15] = second compound 0.316 µM, first compound 0.316 µM
[16] = second compound 0.316 µM, first compound 1 µM
[17] = second compound 0.316 µM, first compound 3.16 µM
[18] = second compound 0.316 µM, first compound 10 µM
[19] = second compound 1 µM, first compound 0.0316 µM
[20] = second compound 1 µM, first compound 0.1 µM
[21] = second compound 1 µM, first compound 0.316 µM
[22] = second compound 1 µM, first compound 1 µM
[23] = second compound 1 µM, first compound 3.16 µM
[24] = second compound 1 µM, first compound 10 µM
[25] = second compound 3.16 µM, first compound 0.0316 µM
[26] = second compound 3.16 µM, first compound 0.1 µM
[27] = second compound 3.16 µM, first compound 0.316 µM
[28] = second compound 3.16 µM, first compound 1 µM
[29] = second compound 3.16 µM, first compound 3.16 µM
[30] = second compound 3.16 µM, first compound 10 µM
[31] = second compound 10 µM, first compound 0.0316 µM
[32] = second compound 10 µM, first compound 0.1 µM
[33] = second compound 10 µM, first compound 0.316 µM
[34] = second compound 10 µM, first compound 1 µM
[35] = second compound 10 µM, first compound 3.16 µM
[36] = second compound 10 µM, first compound 10 µM
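Further: spheroids exposed to the agents for 7 days.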
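Wherever viability, T/C is given: 100% = DMSO vehicle control viability.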

Structure (SMILES): CC(C)n1c(=O)n(C)c2cnc3cc(F)c(-c4ccc(OCCCN5CCCCC5)nc4)cc3c21 + CN(C)c1ccc(Nc2c3ccc(NC(=O)CCN4CCCC4)cc3nc3cc(NC(=O)CCN4CCCC4)ccc23)cc1
- IC50 (second compound 0.0316 µM): > 10 µM
- IC50 (second compound 0.1 µM): > 10 µM
- IC50 (second compound 0.316 µM): > 10 µM
- IC50 (second compound 1 µM): > 10 µM
- IC50 (second compound 3.16 µM): > 10 µM
- IC50 (second compound 10 µM): > 10 µM
- viability, T/C [1]: 104%
- viability, T/C [2]: 91.2%
- viability, T/C [3]: 101%
- viability, T/C [4]: 87%
- viability, T/C [5]: 83%
- viability, T/C [6]: 108%
- viability, T/C [7]: 93.8%
- viability, T/C [8]: 86%
- viability, T/C [9]: 104%
- viability, T/C [10]: 64%
- viability, T/C [11]: 96.2%
- viability, T/C [12]: 98.7%
- viability, T/C [13]: 98.4%
- viability, T/C [14]: 81.9%
- viability, T/C [15]: 95.9%
- viability, T/C [16]: 82.7%
- viability, T/C [17]: 93.7%
- viability, T/C [18]: 95.2%
- viability, T/C [19]: 76%
- viability, T/C [20]: 89.8%
- viability, T/C [21]: 88.9%
- viability, T/C [22]: 93.8%
- viability, T/C [23]: 92%
- viability, T/C [24]: 95%
- viability, T/C [25]: 74.3%
- viability, T/C [26]: 85.4%
- viability, T/C [27]: 91.7%
- viability, T/C [28]: 104%
- viability, T/C [29]: 106%
- viability, T/C [30]: 93.3%
- viability, T/C [31]: 86.6%
- viability, T/C [32]: 71.7%
- viability, T/C [33]: 103%
- viability, T/C [34]: 96.7%
- viability, T/C [35]: 103%
- viability, T/C [36]: 98.4%

Structure (SMILES): COc1cc(C2c3cc4c(cc3C(OC3OC5COC(C)OC5C(O)C3O)C3COC(=O)C23)OCO4)cc(OC)c1O (stereo unspecified) + CN(C)c1ccc(Nc2c3ccc(NC(=O)CCN4CCCC4)cc3nc3cc(NC(=O)CCN4CCCC4)ccc23)cc1
- IC50 (second compound 0.0316 µM): > 10 µM
- IC50 (second compound 0.1 µM): > 10 µM
- IC50 (second compound 0.316 µM): > 10 µM
- IC50 (second compound 1 µM): > 10 µM
- IC50 (second compound 3.16 µM): > 10 µM
- IC50 (second compound 10 µM): > 10 µM
- viability, T/C [1]: 93.8%
- viability, T/C [2]: 105%
- viability, T/C [3]: 96.5%
- viability, T/C [4]: 78.6%
- viability, T/C [5]: 74.1%
- viability, T/C [6]: 74.7%
- viability, T/C [7]: 113%
- viability, T/C [8]: 105%
- viability, T/C [9]: 101%
- viability, T/C [10]: 81.2%
- viability, T/C [11]: 95.2%
- viability, T/C [12]: 65.7%
- viability, T/C [13]: 97.2%
- viability, T/C [14]: 96.6%
- viability, T/C [15]: 91.4%
- viability, T/C [16]: 87.1%
- viability, T/C [17]: 92.3%
- viability, T/C [18]: 64.8%
- viability, T/C [19]: 89.1%
- viability, T/C [20]: 110%
- viability, T/C [21]: 90.2%
- viability, T/C [22]: 75.1%
- viability, T/C [23]: 91.2%
- viability, T/C [24]: 55.2%
- viability, T/C [25]: 78.7%
- viability, T/C [26]: 102%
- viability, T/C [27]: 76.7%
- viability, T/C [28]: 95.2%
- viability, T/C [29]: 83.2%
- viability, T/C [30]: 72.3%
- viability, T/C [31]: 79.7%
- viability, T/C [32]: 108%
- viability, T/C [33]: 99.9%
- viability, T/C [34]: 87.2%
- viability, T/C [35]: 89.8%
- viability, T/C [36]: 67.4%

Structure (SMILES): CC(C)n1c(=O)n(C)c2cnc3cc(F)c(-c4ccc(OCCCN5CCCCC5)nc4)cc3c21 + Cc1[nH]c2ccc(F)cc2c1-c1nc2c3cccnc3c3ncccc3c2[nH]1
- IC50 (second compound 0.0316 µM): > 10 µM
- IC50 (second compound 0.1 µM): > 10 µM
- IC50 (second compound 0.316 µM): > 10 µM
- IC50 (second compound 1 µM): > 10 µM
- IC50 (second compound 3.16 µM): > 10 µM
- IC50 (second compound 10 µM): > 10 µM
- viability, T/C [1]: 117%
- viability, T/C [2]: 104%
- viability, T/C [3]: 112%
- viability, T/C [4]: 98.2%
- viability, T/C [5]: 113%
- viability, T/C [6]: 106%
- viability, T/C [7]: 121%
- viability, T/C [8]: 97.6%
- viability, T/C [9]: 97.6%
- viability, T/C [10]: 95.6%
- viability, T/C [11]: 108%
- viability, T/C [12]: 99.9%
- viability, T/C [13]: 94.2%
- viability, T/C [14]: 103%
- viability, T/C [15]: 88.8%
- viability, T/C [16]: 77.9%
- viability, T/C [17]: 116%
- viability, T/C [18]: 84%
- viability, T/C [19]: 86.4%
- viability, T/C [20]: 109%
- viability, T/C [21]: 91.1%
- viability, T/C [22]: 107%
- viability, T/C [23]: 112%
- viability, T/C [24]: 98.8%
- viability, T/C [25]: 89.3%
- viability, T/C [26]: 100%
- viability, T/C [27]: 100%
- viability, T/C [28]: 93.2%
- viability, T/C [29]: 98.2%
- viability, T/C [30]: 90.5%
- viability, T/C [31]: 81.5%
- viability, T/C [32]: 79.9%
- viability, T/C [33]: 95.7%
- viability, T/C [34]: 79.9%
- viability, T/C [35]: 88.9%
- viability, T/C [36]: 72.5%
